Assay in all cases: biochemical
Common to all, as to design: Invitrogen SelectScreen kinase panel, percent inhibition at 1 uM, ATP at Km
Common to all, as to settings: read-out: Invitrogen KSS %Inh at 1 µM

In one assay the target is NTRK2 (TRKB) (Homo sapiens, UniProt Q16620). The protocol:
(§1) The METi and RAFi were screened against kinase panels (SelectScreen, Invitrogen; University of Dundee, Division of Signal Transduction Therapy, UK; Upstate Biotechnology/Millipore, Billerica, MA). In these selectivity assays the concentration of ATP was set to the Km value of ATP for each kinase tested to allow for a relative potency comparison between the various kinases. The compounds were tested at 1 µM final concentration. […] Supplementary file pone.0039653.s002.pdf: Figure S2 Kinase Selectivity Screen of RAFi. (A) Kinase selectivity screen (KSS) performed at University of Dundee (Division of Signal Transduction Therapy). Values in % inhibition of phosphorylation given 1 µM of RAFi compared to control. (B) KSS performed at Invitrogen (Selectscreen Service) compared to control. Values in % inhibition of phosphorylation given 1 µM of RAFi. (C) Cell based dose response kinase inhibition of indicated kinases by RAFi. (PDF) Click here for additional data file.

For the next assay, the target named is CAMK2A (CaMKII alpha) (Homo sapiens, UniProt Q9UQM7). Here is the method: as §1
A further assay addresses PRKCQ (PKC theta) (Homo sapiens, UniProt Q04759). Here is the method:
as §1

In another assay the target is MAPK9 (JNK2) (Homo sapiens, UniProt P45984). Here is the method:
as §1

A further assay concerns the target PTK2 (FAK) (Homo sapiens, UniProt Q05397). Here is the method: as §1
The target in a further assay is MAPK14 (p38 alpha)** (Homo sapiens, UniProt Q16539). The protocol:
as §1

Another assay addresses MAPKAPK3 (Homo sapiens, UniProt Q16644). Here is the method: as §1
The target of the next assay is T1, PRKCB1 (PKC beta I) (Homo sapiens, UniProt P05771).
T1 construct: gene PRKCB; isoform beta I
The protocol: as §1

The target in another assay is AKT2 (PKB beta) (Homo sapiens, UniProt P31751). The protocol: as §1
Another assay concerns the target RPS6KA5 (MSK1) (Homo sapiens, UniProt O75582). Here is the method: as §1
The next assay deals with MYLK2 (skMLCK) (Homo sapiens, UniProt Q9H1R3). The protocol:
as §1

The next assay has as its target MAP4K2 (GCK) (Homo sapiens, UniProt Q12851). Here is the method:
as §1

For another assay, the target named is FES (FPS) (Homo sapiens, UniProt P07332). Here is the method: as §1
The next assay has as its target ABL2 (Arg) (Homo sapiens, UniProt P42684). The protocol:
as §1

The target of a further assay is BMX (Homo sapiens, UniProt P51813). Here is the method: as §1
The target of a further assay is NEK2 (Homo sapiens, UniProt P51955). The protocol:
as §1

The target of the next assay is PRKCG (PKC gamma) (Homo sapiens, UniProt P05129). Here is the method: as §1
Assay [1] addresses PIK3CA/PIK3R1 (p110 alpha/p85 alpha) (Homo sapiens, UniProt P42336). The protocol: as §1
The next assay has as its target PIM2 (Homo sapiens, UniProt Q9P1W9). Here is the method:
as §1

The target of a further assay is ROCK1 (Homo sapiens, UniProt Q13464). The protocol:
as §1

The target in the next assay is T2, CDK5/p35 (Homo sapiens, UniProt Q00535).
T2 construct: p35
The protocol: as §1

The target of another assay is KIT T670I (Homo sapiens, UniProt P10721, T670I). The protocol: as §1

Structures are written as SMILES.

NEK2, sequence (P51955 whole entry): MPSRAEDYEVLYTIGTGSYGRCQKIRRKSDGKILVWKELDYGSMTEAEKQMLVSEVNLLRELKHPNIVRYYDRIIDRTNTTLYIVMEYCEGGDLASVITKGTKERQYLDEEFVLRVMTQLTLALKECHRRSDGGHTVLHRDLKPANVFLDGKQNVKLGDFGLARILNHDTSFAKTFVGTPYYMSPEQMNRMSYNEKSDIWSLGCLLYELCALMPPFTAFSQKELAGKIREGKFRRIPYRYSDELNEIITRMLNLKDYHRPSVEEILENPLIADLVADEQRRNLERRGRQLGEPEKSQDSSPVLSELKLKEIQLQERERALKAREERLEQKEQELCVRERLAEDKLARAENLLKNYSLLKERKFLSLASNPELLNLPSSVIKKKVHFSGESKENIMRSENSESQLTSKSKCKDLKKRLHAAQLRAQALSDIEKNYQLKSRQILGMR
FES (FPS), sequence (P07332 whole entry): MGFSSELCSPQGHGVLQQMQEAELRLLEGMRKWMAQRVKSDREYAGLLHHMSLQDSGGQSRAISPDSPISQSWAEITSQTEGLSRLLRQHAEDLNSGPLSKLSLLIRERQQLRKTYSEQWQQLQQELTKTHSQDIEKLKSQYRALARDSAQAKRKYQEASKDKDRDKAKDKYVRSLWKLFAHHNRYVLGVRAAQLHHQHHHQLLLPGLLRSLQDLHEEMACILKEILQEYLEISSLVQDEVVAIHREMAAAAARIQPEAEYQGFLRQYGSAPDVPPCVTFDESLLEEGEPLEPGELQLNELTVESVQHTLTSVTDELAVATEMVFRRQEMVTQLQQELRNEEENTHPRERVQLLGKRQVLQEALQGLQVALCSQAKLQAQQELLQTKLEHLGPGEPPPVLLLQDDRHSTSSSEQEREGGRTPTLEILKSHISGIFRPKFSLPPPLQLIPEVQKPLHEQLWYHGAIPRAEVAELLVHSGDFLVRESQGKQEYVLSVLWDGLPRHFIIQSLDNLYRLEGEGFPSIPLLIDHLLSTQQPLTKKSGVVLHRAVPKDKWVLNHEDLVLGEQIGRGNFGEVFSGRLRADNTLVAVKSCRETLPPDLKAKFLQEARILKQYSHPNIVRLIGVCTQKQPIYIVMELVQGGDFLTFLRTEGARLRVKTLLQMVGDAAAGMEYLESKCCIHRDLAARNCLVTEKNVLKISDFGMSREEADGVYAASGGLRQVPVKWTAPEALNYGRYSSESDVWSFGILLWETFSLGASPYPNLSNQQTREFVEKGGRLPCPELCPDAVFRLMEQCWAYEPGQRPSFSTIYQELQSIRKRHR
PIM2, sequence (Q9P1W9 whole entry): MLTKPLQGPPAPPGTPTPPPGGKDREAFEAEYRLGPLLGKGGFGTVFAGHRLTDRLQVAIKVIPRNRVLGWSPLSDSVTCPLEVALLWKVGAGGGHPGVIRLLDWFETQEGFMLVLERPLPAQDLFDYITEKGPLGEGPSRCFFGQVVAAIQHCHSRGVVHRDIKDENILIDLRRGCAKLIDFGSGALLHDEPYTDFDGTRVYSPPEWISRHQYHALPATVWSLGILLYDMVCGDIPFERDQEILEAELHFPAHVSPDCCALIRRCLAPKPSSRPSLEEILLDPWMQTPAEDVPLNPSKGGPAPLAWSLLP
BMX, sequence (P51813 whole entry): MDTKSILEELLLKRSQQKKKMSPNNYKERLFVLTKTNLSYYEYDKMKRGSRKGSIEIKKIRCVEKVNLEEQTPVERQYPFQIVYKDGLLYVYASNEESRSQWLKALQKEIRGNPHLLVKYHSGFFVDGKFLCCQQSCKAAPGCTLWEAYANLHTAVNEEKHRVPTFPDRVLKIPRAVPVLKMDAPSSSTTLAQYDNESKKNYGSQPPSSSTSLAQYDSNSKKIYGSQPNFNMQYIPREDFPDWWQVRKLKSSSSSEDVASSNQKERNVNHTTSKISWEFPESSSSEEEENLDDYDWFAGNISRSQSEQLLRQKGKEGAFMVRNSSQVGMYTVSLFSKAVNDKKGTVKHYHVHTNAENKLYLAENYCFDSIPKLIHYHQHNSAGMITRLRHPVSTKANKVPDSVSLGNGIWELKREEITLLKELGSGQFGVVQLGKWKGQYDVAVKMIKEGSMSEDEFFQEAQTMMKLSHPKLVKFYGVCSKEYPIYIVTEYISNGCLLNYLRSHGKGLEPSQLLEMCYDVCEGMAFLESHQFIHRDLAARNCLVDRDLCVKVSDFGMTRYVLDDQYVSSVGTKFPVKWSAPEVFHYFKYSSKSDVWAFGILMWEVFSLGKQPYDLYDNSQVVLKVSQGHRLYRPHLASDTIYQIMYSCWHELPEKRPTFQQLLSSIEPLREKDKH
NTRK2 (TRKB), sequence (Q16620 whole entry): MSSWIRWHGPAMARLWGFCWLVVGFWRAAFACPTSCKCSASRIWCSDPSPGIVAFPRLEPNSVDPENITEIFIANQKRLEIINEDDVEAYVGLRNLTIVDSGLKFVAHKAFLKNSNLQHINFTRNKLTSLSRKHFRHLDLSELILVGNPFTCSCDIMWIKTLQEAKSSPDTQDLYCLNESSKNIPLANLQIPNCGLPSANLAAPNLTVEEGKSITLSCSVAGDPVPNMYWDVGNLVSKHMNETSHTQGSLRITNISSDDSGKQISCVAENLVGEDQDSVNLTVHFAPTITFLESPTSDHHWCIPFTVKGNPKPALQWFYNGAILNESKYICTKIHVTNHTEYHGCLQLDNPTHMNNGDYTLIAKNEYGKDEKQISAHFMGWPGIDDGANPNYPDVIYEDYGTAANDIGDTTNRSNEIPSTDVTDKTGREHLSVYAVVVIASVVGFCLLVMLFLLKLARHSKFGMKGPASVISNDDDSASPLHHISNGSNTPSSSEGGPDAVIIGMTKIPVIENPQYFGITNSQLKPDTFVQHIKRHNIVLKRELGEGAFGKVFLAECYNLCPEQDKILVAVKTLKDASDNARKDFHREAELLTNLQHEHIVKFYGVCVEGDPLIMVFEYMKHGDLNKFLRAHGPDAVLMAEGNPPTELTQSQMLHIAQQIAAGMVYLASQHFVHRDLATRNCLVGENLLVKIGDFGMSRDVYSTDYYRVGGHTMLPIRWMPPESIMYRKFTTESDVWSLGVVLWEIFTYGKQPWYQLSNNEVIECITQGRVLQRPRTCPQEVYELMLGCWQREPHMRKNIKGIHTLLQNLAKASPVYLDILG
MAPK14 (p38 alpha)**, sequence (Q16539 whole entry): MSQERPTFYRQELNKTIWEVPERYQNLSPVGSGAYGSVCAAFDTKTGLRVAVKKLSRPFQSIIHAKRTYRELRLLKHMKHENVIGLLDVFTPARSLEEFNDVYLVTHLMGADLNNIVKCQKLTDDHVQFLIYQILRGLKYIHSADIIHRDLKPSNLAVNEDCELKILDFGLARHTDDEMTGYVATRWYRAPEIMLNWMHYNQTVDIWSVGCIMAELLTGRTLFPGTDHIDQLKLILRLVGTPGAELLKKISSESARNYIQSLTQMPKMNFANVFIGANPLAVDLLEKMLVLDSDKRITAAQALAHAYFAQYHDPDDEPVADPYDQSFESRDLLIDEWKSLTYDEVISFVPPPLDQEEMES
MAPK9 (JNK2), sequence (P45984 whole entry): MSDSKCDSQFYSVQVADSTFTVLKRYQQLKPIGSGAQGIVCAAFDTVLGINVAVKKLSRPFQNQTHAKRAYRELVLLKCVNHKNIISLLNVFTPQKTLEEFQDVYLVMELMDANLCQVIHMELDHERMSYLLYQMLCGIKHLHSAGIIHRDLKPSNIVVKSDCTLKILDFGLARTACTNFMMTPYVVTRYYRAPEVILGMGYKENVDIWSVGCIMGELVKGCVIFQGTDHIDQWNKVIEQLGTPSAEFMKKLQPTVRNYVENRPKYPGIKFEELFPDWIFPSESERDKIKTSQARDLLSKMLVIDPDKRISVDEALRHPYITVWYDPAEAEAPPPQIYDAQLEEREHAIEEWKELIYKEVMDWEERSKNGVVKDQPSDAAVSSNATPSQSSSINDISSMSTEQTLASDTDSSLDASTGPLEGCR
MAP4K2 (GCK), sequence (Q12851 whole entry): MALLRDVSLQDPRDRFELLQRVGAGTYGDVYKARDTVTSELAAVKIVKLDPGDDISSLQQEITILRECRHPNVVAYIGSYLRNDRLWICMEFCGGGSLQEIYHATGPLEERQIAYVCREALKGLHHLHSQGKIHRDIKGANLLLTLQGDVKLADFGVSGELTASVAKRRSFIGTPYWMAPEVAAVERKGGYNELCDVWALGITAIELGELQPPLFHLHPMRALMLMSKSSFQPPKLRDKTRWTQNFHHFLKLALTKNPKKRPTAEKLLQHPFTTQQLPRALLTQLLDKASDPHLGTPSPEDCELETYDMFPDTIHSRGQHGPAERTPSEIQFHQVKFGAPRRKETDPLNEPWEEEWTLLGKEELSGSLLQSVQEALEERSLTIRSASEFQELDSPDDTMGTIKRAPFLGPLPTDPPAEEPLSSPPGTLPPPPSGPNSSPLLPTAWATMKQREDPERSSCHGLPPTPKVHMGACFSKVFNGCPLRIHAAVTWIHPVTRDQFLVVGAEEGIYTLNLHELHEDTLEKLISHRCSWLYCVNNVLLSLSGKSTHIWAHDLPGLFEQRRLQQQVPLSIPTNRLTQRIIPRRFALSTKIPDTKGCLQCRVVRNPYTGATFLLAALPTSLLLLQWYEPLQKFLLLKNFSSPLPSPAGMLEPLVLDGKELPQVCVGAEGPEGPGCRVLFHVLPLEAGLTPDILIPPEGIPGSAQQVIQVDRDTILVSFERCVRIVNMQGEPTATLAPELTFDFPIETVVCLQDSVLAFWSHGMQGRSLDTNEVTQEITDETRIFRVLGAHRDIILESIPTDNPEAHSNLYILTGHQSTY

`N#CCCNc1nccc(-c2cn(CC(F)F)nc2-c2cnc3[nH]ccc3c2)n1` [RAFi, PF-04880594]: the inhibition at 1 µM is 23% on NTRK2 (TRKB); -1% at CAMK2A (CaMKII alpha); -2% on PRKCQ (PKC theta); 101% at MAPK9 (JNK2); 12% on PTK2 (FAK); 93% at MAPK14 (p38 alpha)**. Moreover, the inhibition at 1 µM on MAPKAPK3 is 12%; at PRKCB1 (PKC beta I) it was 36%; on AKT2 (PKB beta), 6%; on RPS6KA5 (MSK1), 3%; on MYLK2 (skMLCK), 20%; at MAP4K2 (GCK), -12%. Further, the inhibition at 1 µM at FES (FPS) was -11%; on ABL2 (Arg), -1%; at BMX, -3%; on NEK2, 40%; at PRKCG (PKC gamma) it was -15%; in [1], 35%. Further, the inhibition at 1 µM at PIM2 worked out at 3%; at ROCK1 it was 4%; at CDK5/p35 it was 9%; at KIT T670I, 36%.

Values taken from publication PMC3382171 (PLoS ONE, 2012).
